We go through 15 molecules from US20240368150A1 (Hoffmann-La Roche Inc., priority 2021, published 2024).

For test [1], the system named is primary human T-cells. Nature of the test: Proliferation assay after 5 days (CellTiter-Glo, CD3 stimulation; PBS counter screen). In kind it is cell-based. Particulars: CD3 stimulation; for Emax: read-out: Emax proliferation (% activation); for EC50: primary human T-cells, CellTiter-Glo after 5 days, EC50 of fitted sigmoidal curve, read-out: Tcell Proliferation CD3 EC50. In outline: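 Compounds were added to medium-only plates, and proliferation was read 5 days later as luminescence from CellTiter-Glo 2.0, whose ATP signal is proportional to cell number. Plates and reagent were equilibrated to room temperature for 45 min before an equal volume of reagent was added, with 15 min rocking.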
(In general: Cellular ATP, detected with luciferase, serves as a proxy for viable cell number.)

In test [2] the test system is primary human T-cells.
[3] abbreviates: Homo sapiens, T-cell, 120 h, 5 days, normalized to reference compound A1 as stimulator control = 100%, DMSO neutral control.

Like-named read-outs stand apart in the source and are kept apart here.

Consider `C#CC1(Nc2nnc(-c3cc4c(cc3F)S(=O)(=O)C[C@H](N)C(=O)N4Cc3ccc(Cl)cc3)o2)CCCCC1` [Example 497, (3R)-3-amino-5-[(4-chlorophenyl)methyl]-7-[5-[(1-ethynylcyclohexyl)amino]-1,3,4-oxadiazol-2-yl]-8-fluoro-1,1-dioxo-2,3-dihydro-1λ^6,5-benzothiazepin-4-one], for which the Emax in test [1] (setting [3]) was determined as 125%. Also, the EC50 came out at 874 nM in test [1] (Homo sapiens, T-cell, 120 h) and 1720 nM in test [2].
For `COC(=O)N1CCC(C#N)(c2nnc(-c3ccc4c(c3)N(Cc3ccc(Cl)cc3)C(=O)[C@@H](N)CS4(=O)=O)o2)CC1` [Example 389, methyl 4-[5-[(3R)-3-amino-5-[(4-chlorophenyl)methyl]-1,1,4-trioxo-2,3-dihydro-1λ^6,5-benzothiazepin-7-yl]-1,3,4-oxadiazol-2-yl]-4-cyano-piperidine-1-carboxylate] the same measures were 80%, 1990 nM and greater than 2730 nM.
Taken in the same sequence, the figures for `Cc1cc(C)c(-c2nnc(-c3cc4c(cc3F)S(=O)(=O)C[C@H](N)C(=O)N4Cc3ccc(Cl)cc3)o2)cn1` [Example 130, (3R)-3-amino-5-[(4-chlorophenyl)methyl]-7-[5-(4,6-dimethyl-3-pyridyl)-1,3,4-oxadiazol-2-yl]-8-fluoro-1,1-dioxo-2,3-dihydro-1λ^6,5-benzothiazepin-4-one] were 114%, 159 nM and 284 nM.
With `CCOC(=O)N1CC2CC(c3nc(-c4cc5c(cc4F)S(=O)(=O)C[C@H](N)C(=O)N5Cc4ccc(Cl)cc4)no3)(C2)C1` [Example 315, ethyl 1-[3-[(3R)-3-amino-5-[(4-chlorophenyl)methyl]-8-fluoro-1,1,4-trioxo-2,3-dihydro-1λ^6,5-benzothiazepin-7-yl]-1,2,4-oxadiazol-5-yl]-3-azabicyclo[3.1.1]heptane-3-carboxylate], in test [1] (setting [3]), the Emax turned out to be 131%. In addition, the EC50 in test [2] is 1030 nM.
For the molecule `CC(C)(C)n1nnc(-c2cc3c(cc2F)[S+]([O-])C[C@H](N)C(=O)N3Cc2ccc(Cl)cc2)n1` (stereo partly drawn) [Example 35, (3R)-3-amino-7-(2-tert-butyltetrazol-5-yl)-5-[(4-chlorophenyl)methyl]-8-fluoro-1-oxo-2,3-dihydro-1λ^4,5-benzothiazepin-4-one], in test [1] (5 days, normalized to reference compound A1 as stimulator control = 100%, DMSO neutral control), the “Emax proliferation (% activation)” value came to 125 % activation. Moreover, the EC50 in test [1] stood at 1240 nM; in test [2], 7130 nM.
Take `CC(C)(C)c1nnc(-c2cc3c(cc2F)S(=O)(=O)C[C@H](N)C(=O)N3Cc2ccc(Cl)cc2CN)o1` [Example 256, (3R)-3-amino-5-[[2-(aminomethyl)-4-chloro-phenyl]methyl]-7-(5-tert-butyl-1,3,4-oxadiazol-2-yl)-8-fluoro-1,1-dioxo-2,3-dihydro-1λ^6,5-benzothiazepin-4-one]: the Emax in test [1] (setting [3]) worked out at 3%. The EC50 is greater than 20000 nM in test [1] (Homo sapiens, T-cell, 120 h) and greater than 20000 nM in test [2].
For `N[C@H]1CS(=O)(=O)c2cc(F)c(-c3nnc(-c4ccc(F)cn4)o3)cc2N(Cc2ccc(Cl)cc2)C1=O` [Example 135, (3R)-3-amino-5-[(4-chlorophenyl)methyl]-8-fluoro-7-[5-(5-fluoro-2-pyridyl)-1,3,4-oxadiazol-2-yl]-1,1-dioxo-2,3-dihydro-1λ^6,5-benzothiazepin-4-one], the Emax in test [1] (setting [3]) turned out to be 93%. Besides, the EC50 amounted to 1050 nM in test [1] (Homo sapiens, T-cell, 120 h) and 2900 nM in test [2].
Consider `CC(C)OC(=O)N1CC2CC(c3nc(-c4cc5c(cc4F)S(=O)(=O)C[C@H](N)C(=O)N5Cc4ccc(Cl)cc4)no3)(C2)C1` [Example 316, isopropyl 1-[3-[(3R)-3-amino-5-[(4-chlorophenyl)methyl]-8-fluoro-1,1,4-trioxo-2,3-dihydro-1λ^6,5-benzothiazepin-7-yl]-1,2,4-oxadiazol-5-yl]-3-azabicyclo[3.1.1]heptane-3-carboxylate], for which, in test [1] (setting [3]), the Emax came out at 112%. This molecule also yielded an EC50 in test [2] of 679 nM.
Regarding `C#CCC(C)(C)c1nnc(-c2cc3c(cc2F)S(=O)(=O)C[C@H](N)C(=O)N3Cc2ccc(OC(F)(F)F)cc2)o1` [Example 450, (3R)-3-amino-7-[5-(1,1-dimethylbut-3-ynyl)-1,3,4-oxadiazol-2-yl]-8-fluoro-1,1-dioxo-5-[[4-(trifluoromethoxy)phenyl]methyl]-2,3-dihydro-1λ^6,5-benzothiazepin-4-one], the Emax in test [1] (setting [3]) is 114%. The EC50 in test [1] (Homo sapiens, T-cell, 120 h) was determined as 71.5 nM; in test [2], 73.1 nM.
For `CCC(=O)N[C@H]1CS(=O)(=O)c2cc(F)c(-c3nnc(C(C)(C)C)o3)cc2N(Cc2ccc(Cl)cc2)C1=O` [Example 259, N-[(3R)-7-(5-tert-butyl-1,3,4-oxadiazol-2-yl)-5-[(4-chlorophenyl)methyl]-8-fluoro-1,1,4-trioxo-2,3-dihydro-1λ^6,5-benzothiazepin-3-yl]propanamide] the same measures were 159%, 345 nM and 2100 nM.
Taken in the same sequence, the figures for `CC(C)(C)c1nnc(-c2cc3c(cc2F)S(=O)(=O)C[C@H](N)C(=O)N3Cc2ccc(S(C)(=O)=O)cc2)o1` [Example 229, (3R)-3-amino-7-(5-tert-butyl-1,3,4-oxadiazol-2-yl)-8-fluoro-5-[(4-methylsulfonylphenyl)methyl]-1,1-dioxo-2,3-dihydro-1λ^6,5-benzothiazepin-4-one] were 116%, 1680 nM and 2440 nM.
Taken in the same sequence, the figures for `CN(C)C(=O)C(C)(C)c1nnc(-c2cc3c(cc2F)S(=O)(=O)C[C@H](N)C(=O)N3Cc2ccc(Cl)cc2)o1` [Example 125, N,N,2-trimethyl-2-[5-[(3R)-3-amino-5-[(4-chlorophenyl)methyl]-8-fluoro-1,1,4-trioxo-2,3-dihydro-1λ^6,5-benzothiazepin-7-yl]-1,3,4-oxadiazol-2-yl]propanamide] were 112%, 587 nM and 1440 nM.
For the molecule `N[C@H]1CS(=O)(=O)c2cc(F)c(-c3noc(N4CCNC(C(F)(F)F)C4)n3)cc2N(Cc2ccc(Cl)cc2)C1=O` (stereo partly drawn) [Example 198, (3R)-3-amino-5-[(4-chlorophenyl)methyl]-8-fluoro-1,1-dioxo-7-[5-[3-(trifluoromethyl)piperazin-1-yl]-1,2,4-oxadiazol-3-yl]-2,3-dihydro-1λ^6,5-benzothiazepin-4-one], the Emax in test [1] (setting [3]) amounted to 112%. For the same molecule, the EC50 in test [1] (Homo sapiens, T-cell, 120 h) came to 332 nM; in test [2], 562 nM.
Taken in the same sequence, the figures for `CC(N)(c1nnc(-c2ccc3c(c2)N(Cc2ccc(Cl)cc2)C(=O)[C@@H](N)CS3(=O)=O)o1)C(F)(F)F` (stereo partly drawn) [Example 362, (3R)-3-amino-7-[5-(1-amino-2,2,2-trifluoro-1-methyl-ethyl)-1,3,4-oxadiazol-2-yl]-5-[(4-chlorophenyl)methyl]-1,1-dioxo-2,3-dihydro-1λ^6,5-benzothiazepin-4-one] were 84%, 3720 nM and 1730 nM.
With `COC(C)(C)c1nnc(-c2ccc3c(c2)N(Cc2ccc(Cl)cc2)C(=O)[C@@H](N)CS3(=O)=O)o1` [Example 368], in test [1] (setting [3]), the Emax is 103%. The EC50 was 6560 nM in test [1] (Homo sapiens, T-cell, 120 h) and 5550 nM in test [2].
